Source: patent US20240190993A1, “NEW METHOD TO IMPROVE THE ANTI-TUMORAL ACTIVITY OF MACROPHAGES” (INSERM (INSTITUT NATIONAL DE LA SANTÉ ET DE LA RECHERCHE …, priority 2021, published 2024)
“Also recorded” adds a separate entry of the source.

How the values were obtained:
NXS2 cells = test: syngeneic model of NXS2 NB liver metastasis in A/J mice, liver weight; assay type: in vivo, mouse
Protocol: Depletion of macrophages in 8-week-old A/J mice was performed clodronate liposomes or liposomes obtained from Liposoma (Liposoma BV, Amsterdam, the Netherlands) according to the manufacturer's instructions. Mice were given either clodronate liposomes or liposome i.p. 4 days before tumor cell injection and thereafter on days 0, 3, 7, 10, 14, 17, and 21 post-tumor cell inoculation. The effectiveness of macrophage depletion was determined by flow cytometry analysis of CD45+F4/80+CD11b+Ly6G-Ly6Clow-int cells among splenocytes from the treated animals.
NXS2 Cells (2.5×10^5 in 100 μL of PBS) were transplanted into syngeneic 8-weeks old female A/J mice (Harlan Laboratories, Gannat, France) i.v., to induces liver metastasis 6. Mice received either mAb 8B6 (25 μg, i.v.) or mAb P84 (200 μg, i.p.) twice a week for 3 consecutive weeks beginning 3 days after tumor cell injection. Isotretinoin was given orally diluted in Ora-Plus® at 10 mg/kg daily for 5 consecutive days, starting week 3 after tumor cell challenge. Mice were euthanized on day 27 post-tumor challenge. Anti-tumor efficacy was evaluated by liver weight of the fresh specimen as described previously 6.

CD47 [1] = test: CD47 cell-surface expression in human NB cell lines in vitro, flow cytometry; assay type: cell-based; conditions: human NB cell lines IMR5, LAN1; 72 hours incubation; FIG. 2A-C
Protocol: (§1) FIG. 2. Both O-acetyl GD2-specific monoclonal antibody 8B6 and 13-cis-RA exposures induce CD47 phagocytosis checkpoint up-regulation in NB cells in vitro. The NB cells IMR5, LAN1 and NXS2 were respectively incubated for 72 hours with (A) 13-cis-RA, (B) mAb 8B6, and (C) 13-cis-RA plus mAb 8B6, as indicated. After incubation, CD47 cell surface expression was analyzed by flow cytometry analysis. […] Data are presented as the mean±SEM ([…]; **p<0.01; ***p<0.001; Mann-Whitney test).
(§2) We next interrogate the impact of mAb 8B6, used alone or in combination with 13-cis-RA, on CD47 cell-surface expression in human NB cell line. After 72 hours incubation, cells were harvested, stained with a CD47-specific mAb and then subjected to flow cytometry analysis. […] The tested treatments had little impact on CD47 NXS2 cell-surface expression (FIG. 2A-C).

CD47 [2] = test: CD47 cell-surface expression in NXS2 cells in vitro, flow cytometry; assay type: cell-based, mouse; conditions: 72 hours incubation, FIG. 2A-C
Protocol: as §1, §2

## CC1=C(/C=C/C(C)=C/C=C/C(C)=C\C(=O)O)C(C)(C)CCC1 [13-cis-RA, 13-cis-retinoic acid]
NXS2 cells; FIG. 1B, day 27 after i.v. NXS2 inoculation, 8 mice/group, 8B6 i.v. days 3,7,10,14,17,21, 13-cis-RA 10 mg/kg per os
  liver weight: 1.19 ± 0.0 g
NXS2 cells; FIG. 4B, day 27, 8B6 25 μg i.v., P84 i.p. days 3,7,10,14,17,21, 13-cis-RA 10 mg/kg per os days 17-21
  liver weight: 1.95 ± 0.12 g
CD47 [1]
  CD47 cell-surface expression: induces up-regulation of CD47; also recorded: induced CD47 up-regulation
CD47 [2]
  CD47 cell-surface expression: induces up-regulation of CD47
